Reference: PMC3703636 (2013)

Key:
Assay in all cases: gel filtration, radiolabeled GTP
Conditions in all cases: reduced relative to wild type
[1] = test system: VEGF IRES mut (RNA, G4) UGAUGAGUGUGAGGAGGA
[2] = test system: c-MYC transcriptional repressor mut (DNA, G4) GGGTAGGAAGGGTAGGA
[3] = test system: NRAS translational repressor mut (RNA, G4) GGUAGGGUCGGUUCUGGU

Measured: binding

Nc1nc2c(ncn2[C@@H]2O[C@H](COP(=O)(O)OP(=O)(O)OP(=O)(O)O)[C@@H](O)[C@H]2O)c(=O)[nH]1
weak: [1] | [2] | [3]
